Assay results: ChEMBL document CHEMBL3259738, “Discovery of substituted benzamides as follicle stimulating hormone receptor allosteric modulators” (Bioorg Med Chem Lett, 2014)
Values after ≈ are worked out from the molar mass of the structure shown.

Columns and labels:
[1] = molecular target: T1, Follicle-stimulating hormone receptor (Homo sapiens) (UniProt P23945); assay: Positive allosteric modulation of human FSH receptor expressed in CHO cells assessed as effect on FSH-induced cAMP accumulation at 50 uM after 1 hr by HTRF assay relative to FSH; assay type: functional, cell-based
T1 sequence (whole entry): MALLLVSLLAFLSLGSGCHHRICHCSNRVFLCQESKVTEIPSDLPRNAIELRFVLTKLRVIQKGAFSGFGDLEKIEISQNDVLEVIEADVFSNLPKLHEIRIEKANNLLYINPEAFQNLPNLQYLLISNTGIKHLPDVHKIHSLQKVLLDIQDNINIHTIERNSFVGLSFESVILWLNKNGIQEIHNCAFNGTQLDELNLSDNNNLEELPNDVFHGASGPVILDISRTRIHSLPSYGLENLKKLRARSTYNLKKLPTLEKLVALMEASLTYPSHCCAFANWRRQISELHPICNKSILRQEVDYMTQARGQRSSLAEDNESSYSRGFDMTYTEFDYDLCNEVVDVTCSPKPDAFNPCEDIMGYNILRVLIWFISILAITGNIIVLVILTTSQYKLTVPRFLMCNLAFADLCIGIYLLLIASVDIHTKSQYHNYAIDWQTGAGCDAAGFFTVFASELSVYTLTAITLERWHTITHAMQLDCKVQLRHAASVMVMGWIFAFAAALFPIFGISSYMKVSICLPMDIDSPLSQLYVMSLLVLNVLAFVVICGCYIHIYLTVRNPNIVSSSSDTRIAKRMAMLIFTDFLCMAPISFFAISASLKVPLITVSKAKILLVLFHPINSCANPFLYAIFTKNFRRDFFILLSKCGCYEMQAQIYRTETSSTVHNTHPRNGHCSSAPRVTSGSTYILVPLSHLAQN

[2] = molecular target: T1, Follicle-stimulating hormone receptor (Homo sapiens); assay: Positive allosteric modulation of human FSH receptor expressed in CHO cells assessed as effect on FSH-induced cAMP accumulation at 12 uM after 1 hr by HTRF assay relative to FSH; assay type: functional, cell-based
[3] = Volume of distribution at steady state in immature Sprague-Dawley rat at 0.2 mg/kg, iv; assay type: ADME, organism-based; set-up: dose 0.2 mg/kg, route intravenous; conditions: in vivo, read-out: Vdss
[4] = Aqueous solubility of the compound at pH 7.4; assay type: physicochemical
[5] = Clearance in immature Sprague-Dawley rat at 0.2 mg/kg, iv; assay type: ADME, organism-based; set-up: dose 0.2 mg/kg, route intravenous; conditions: in vivo
[6] = Induction of estradiol production in rat primary granulosa cells after 24 hrs by ELISA relative to FSH; assay type: functional
[7] = Induction of estradiol production in rat primary granulosa cells after 24 hrs by ELISA; assay type: functional
[8] = Clearance in rat microsomes; assay type: ADME
[9] = Oral bioavailability in immature Sprague-Dawley rat at 0.5 mg/kg; assay type: ADME, organism-based; conditions: in vivo
[10] = Clearance in human microsomes; assay type: ADME
[11] = molecular target: T2, Follicle-stimulating hormone receptor (Homo sapiens, UniProt P23945); assay: Positive allosteric modulation of human FSH receptor expressed in CHO cells assessed as effect on FSH-induced cAMP accumulation after 1 hr by HTRF assay; assay type: functional, cell-based
T2 sequence (P23945 whole entry): T1 sequence (whole entry)

| SMILES | Activity [1] [%] | microsomal CLint [8] [µL/min/mg] | microsomal CLint [10] [µL/min/mg] | EC50 [11] [nM] | further results |
| --- | --- | --- | --- | --- | --- |
| Cc1ccccc1C1CCN(c2ccc(C(=O)NCCCN3CCCC3=O)cc2NC(=O)c2ccco2)CC1 | 1 | – | – | – | – |
| Cc1ccccc1N1CCN(c2ccc(C(=O)N3CCC(N4CCCC4=O)CC3)cc2NC(=O)c2ccco2)CC1 | – | – | – | – | Activity [2]: 40% |
| Cc1ccccc1N1CCN(c2ccc(C(=O)NCCCN3CCCC3=O)cc2NC(=O)c2ccncc2)CC1 | – | – | – | – | Activity [2]: 34% |
| Cc1ccccc1N1CCN(c2ccc(C(=O)NCCCc3nn[nH]n3)cc2NC(=O)c2coc(C3CC3)n2)CC1 | – | 18 | 20 | 89 | Vd [3]: 5.46 L/kg; solubility [4]: 160 µM (≈ 88.9 µg/mL); clearance [5]: 13.2 mL/min/kg; Efficacy [6]: 78%; EC50 [7]: 170 nM; bioavailability [9]: 21% |
| Cc1ccccc1N1CCN(c2ccc(C(=O)NCCCN3C(=O)CCC3=O)cc2NC(=O)c2ccco2)CC1 | – | 38 | 33 | 184 | – |
| Cc1ccccc1N1CCN(c2ccc(C(=O)NCc3cccc(C(N)=O)c3)cc2NC(=O)c2ccco2)CC1 | – | 31 | 54 | 46 | – |
| Cc1ccccc1N1CCN(c2ccc(C(=O)NCCCN3CCCC3=O)cc2NS(=O)(=O)c2ccco2)CC1 | – | – | – | – | Activity [2]: 10% |
| Cc1ccccc1N1CCN(c2ccc(C(=O)NCCCN3CCCC3=O)cc2NC(=O)c2ccco2)CC1 | – | 233 | 312 | – | – |
| Cc1ccccc1N1CCN(c2ccc(C(=O)NCCCN3CCCC3=O)cc2NC(=O)c2cccnc2)CC1 | – | – | – | – | Activity [2]: 37% |
| O=C(NCCCN1CCCC1=O)c1ccc(N2CCN(c3ccccn3)CC2)c(NC(=O)c2ccco2)c1 | 20 | – | – | – | – |
| Cc1ccccc1N1CCN(c2ccc(C(=O)NCCCN3CCCC3=O)cc2NC(=O)c2coc(C3CC3)n2)CC1 | – | 225 | 260 | 99 | – |
| Cc1ccccc1N1CCN(c2ccc(CNCCCN3CCCC3=O)cc2NC(=O)c2coc(C3CC3)n2)CC1 | – | – | – | – | Activity [2]: 4.5% |
| Cc1ccccc1N1CCN(c2ccc(C(=O)NCCCN3CCOC3=O)cc2NC(=O)c2ccco2)CC1 | – | 25 | 59 | 28 | – |
| O=C(NCCCN1CCCC1=O)c1ccc(N2CCNCC2)c(NC(=O)c2ccco2)c1 | 1 | – | – | – | – |
| Cc1ccc(N2CCN(c3ccc(C(=O)NCCCN4CCCC4=O)cc3NC(=O)c3coc(C4CC4)n3)CC2)cc1 | 13 | – | – | – | – |
| Cc1ccccc1N1CCN(c2ccc(C(=O)N[C@@H]3CCC[C@@H](O)[C@H]3O)cc2NC(=O)c2coc(C3CC3)n2)CC1 | – | 13 | 72 | 53 | Vd [3]: 1.65 L/kg; clearance [5]: 3.41 mL/min/kg; Efficacy [6]: 81%; EC50 [7]: 5 nM; bioavailability [9]: 23% |
| Cc1ccccc1N1CCN(c2ccc(C(=O)NCCCN3CCCC3=O)cc2NC(=O)c2coc(C3CC3)n2)CC1C (configuration not stated) | 36 | – | – | – | – |
| COc1ccccc1N1CCN(c2ccc(C(=O)NCCCN3CCCC3=O)cc2NC(=O)c2ccco2)CC1 | 20 | – | – | – | – |
